pIC50: −log10 of the molar value. Structures can show the parent of a compound that is named as a salt. Where two headings read alike, the source gives them in different places.
Columns and labels:
[1] = system: ^3 H-Norepinephrine release, rat thalamus slices; assay: Ligand-stimulated ^3 H-norepinephrine release from rat thalamus slices; type: cell-based; settings: in vitro slices, 300 μM
Method: (§1) Measurement of ^3 H-dopamine release from rat striatal slices was performed according to the method of Sacaan et al. (J. Neurochem. 59:245 (1992)). Male Sprague-Dawley rats (250-300 g) were decapitated and the striata or olfactory tubercles dissected quickly on a cold glass surface. The tissue was chopped to a thickness of 300 μm with a McIlwain tissue chopper. After chopping again at right angles the tissue was dispersed and incubated for 10 min. at 37° C. in oxygenated Kreb's buffer. ^3 H-Dopamine (40 Ci/mmol, NEN- Dupont, Boston, Mass.) was added (50 nM) and the tissue was incubated for 30 min. in Kreb's buffer containing 10 μM pargyline and 0.5 mM ascorbic acid. Aliquots of the minced tissue were then transferred to chambers of a Brandel Superfusion system in which the tissue was supported on Whatman GF/B filter discs. The tissue was then superfused with buffer at a constant flow rate of 0.3 ml/min by means of a Brandel peristaltic pump. The perfusate was collected in plastic scintillation vials in 3-min fractions, and the radioactivity was estimated by scintillation spectrophotometry. The superfusate for the first 120 min was discarded. After two baseline fractions had been collected, the superfusion buffer was switched to fresh buffer with or without compound of interest. At the end of the experiment the filter and the tissue were removed, and the radiolabeled neurotransmitter content was estimated after extraction into scintillation fluid. The fractional efflux of radiolabeled neurotransmitter was estimated as the amount of radioactivity in the perfusate fraction relative to the total amount in the tissue.
(§2) Following essentially the same procedure as set forth above, the amount of ^3 H-norepinephrine released from rat hippocampus, thalamus and prefrontal cortex slices superfused with buffer containing (or lacking) compounds of interest was also measured.
(§3) Results of studies of the effects of an invention compound (as compared to the effect of nicotine) on the release of neurotransmitters from rat brain slices are presented in Table II. Results presented in Part A of the Table are expressed as the percent fractional release and results presented in Part B of the Table are expressed as a percentage, relative to nicotine response.

[2] = system: ^3 H-Dopamine release, rat striatal slices; assay: Ligand-stimulated ^3 H-dopamine release from rat striatal slices; type: cell-based; settings: in vitro slices, 300 μM
Method: as §1, §3

rats = assay: Locomotor activity assay; type: in vivo, rat (male Sprague-Dawley); settings: Rattus norvegicus, sc, s.c.
Method: This assay can be used to assess the primary effect of a compound on general motor activity. A decrease in locomotor activity is indicative of a possible sedative effect on the animal, whereas an increase in locomotor activity is indicative of a stimulant effect on the animal.
Locomotor activity of rats (male Sprague-Dawley (Harlan) weighing 200-250 gm) was measured for 2 hrs in photocell cages immediately after administration of the invention compound. Prior to the test day, the animals were placed in the activity cages for 3 hrs to familiarize them with the experimental environment. On the test day, the animals were placed in the photocell cages and then injected with compound 1.5 hrs later.
The photocell cages were standard rodent cages (30 cm×20 cm×40 cm) with four infrared beams crossing the long axis. The animals were under no motivational constraints and were free to move around. Movements from one infrared beam to another (ambulation) were called "crossover"; successive interruptions of the same beam (vertical and other movements such as grooming) were called "general activity."

[3] = system: ^3 H-Dopamine release, rat olfactory tubercles; assay: Ligand-stimulated ^3 H-dopamine release from rat olfactory tubercles; type: cell-based; settings: in vitro slices, 300 μM
Method: as §1, §3

[4] = system: ^3 H-Norepinephrine release, rat hippocampus slices; assay: Ligand-stimulated ^3 H-norepinephrine release from rat hippocampus slices; type: cell-based; settings: in vitro slices, 300 μM
Method: as §1, §2, §3

[5] = system: ^3 H-Norepinephrine release, rat prefrontal cortex slices; assay: Ligand-stimulated ^3 H-norepinephrine release from rat prefrontal cortex slices; type: cell-based; settings: in vitro slices, 300 μM
Method: as §1, §2, §3

[6] = system: rats with unilateral 6-hydroxydopamine lesions of the nigrostriatal dopamine pathway; type: in vivo, rat (male Sprague-Dawley); settings: 1 mg/kg base, s.c., per one hour interval
Method: Selective lesions of the brain dopamine pathway using the neurotoxin 6-hydroxydopamine (6-OHDA) in rats can be used as an experimental approach to Parkinson's disease. Unilateral lesions of the nigrostriatal dopamine pathway induce a postural asymmetry which becomes manifested as rotation when the animals are activated by dopamine releasers or dopamine agonists. When amphetamine and other stimulant drugs that induce pre-synaptic release of dopamine from intact nerve terminals are administered, the rats rotate in a direction ipsilateral to the lesion. In contrast, when the rats are injected with post-synaptic dopamine receptor agonists, such as apomorphine, they turn in a contralateral direction, due to the development of supersensitive dopamine receptors in the lesioned side. Thus, the 6-OHDA model can be used to determine if a suspected dopaminergic agent is active, and to differentiate whether such action is pre- or post-synaptic.
The effects of invention compounds on rotational behavior in 6-hydroxydopamine denervated rats were evaluated using the procedure of Ungerstedt and Arbutknott, Brain Res. 24:485-493 (1970). Male Sprague-Dawley rats (Zivic Miller) weighing 170-200 gm were used in the 6-OHDA procedure. The ascending nigrostriatal dopamine pathway was lesioned by unilateral stereotaxic injection of 6-OHDA (8.0 μg) into one substantia nigra. All injections of 6-OHDA were preceded by desmethylimipramine (25 mg/kg i.p.) and pargyline (75 mg/kg i.p.) approximately 30 minutes prior to undergoing stereotaxic surgery for 6-OHDA infusion into the substantia nigra. After one week of recovery from surgery, the effectiveness of the lesions was verified by noting the response of the animals to apomorphine (0.2 mg/kg, s.c.). Only rats with a minimum rate of 80 contralateral turns per 30 minutes (a sign of more than 80-90% dopamine depletion after a 6-OHDA lesion) were used. Two weeks later, the selected rats were tested with invention and reference compounds using an automated rotometer system to record the number and direction of rotations. In order to distinguish spontaneous (non-specific)rotations from induced rotations (specific to the effect of the drug), each rat was used as its own control, employing the following procedure:
The rat was placed in the rotometer system for acclimatation for 15 minutes, the vehicle administered subcutaneously, the rat's rotations recorded for one hour, then test compound was administered s.c. and rotations again recorded for one hour. The number of ipsilateral rotations induced by vehicle was then compared to the number of ipsilateral rotations induced by test compound. Statistical analysis of the data was carried out using Student's t-test (paired).

[7] = biological target: T1, nicotinic acetylcholine receptor (Rattus norvegicus, UniProt P09483+P12390); assay: ^3 H-Nicotine binding/displacement, rat cerebral membranes; settings: ^3 H-nicotine 1.9 nM, rat cerebral membranes; read-out: IC50, Nicotine
T1 construct: the brains removed and the cerebral cortex dissected on ice; from tissue; host or cells: cerebral cortex synaptic membranes of male Sprague-Dawley rats
Method: ^3 H-Nicotine binding to rat cerebral membranes was performed according to modifications of the method of Flyn and Mash (J. Neurochem. 47:1948 (1986)). ^3 H-Nicotine (80 ci/mmol; New England Nuclear Corporation, Boston, Mass.) was used as the ligand for nicotinic acetylcholine receptor binding assays. All other reagents were purchased from the Sigma Chemical Co. (St. Louis, Mo.).
Male Sprague-Dawley rats (250-400 gm) were sacrificed by decapitation, the brains removed and the cerebral cortex dissected on ice. Synaptic membranes were prepared by homogenizing the cortical tissue in 20 volumes of ice-cold modified Tris buffer (50 mM Tris pH 7.4, 120 mM NaCl, 5 mM KCl, 2 mM EDTA, 1 mM PMSF) with a polytron (20 sec at setting 5-6) followed by centrifugation (15 min at 5,000×g) at 4° C. The resultant pellet was rehomogenized and centrifuged twice. The final pellet was resuspended in ice-cold assay buffer (50 mM Tris pH 7.4, 120 mM NaCl, 5 mM KCl, 2 mM CaCl2, 1 mM MgCl2) at a concentration of membrane equivalent to 1 gm wet weight cortex per 10 ml buffer. After protein determination the final membrane preparation was diluted with buffer to 3 mg protein/mi. This membrane preparation was used in either the fresh state or frozen (-70° C.) then thawed.
The binding assay is performed manually using 96-well plates, or using a Biomek automated work station (Beckman Instrument Co.). ^3 H-Nicotine was diluted in assay buffer to give a final concentration of 1.9 nM. The Biomek automated work station was programmed to automatically transfer 750 μl of assay buffer with ^3 H-nicotine, 230 μl of membrane preparation and 20 μl of solution containing the compound of interest in assay buffer, DMSO, ethanol:DMSO (1:1) or appropriate vehicle to the 96-well plate. Atropine was added to the incubation buffer at a final concentration of 3 μM to block binding to muscarinic acetylcholine receptor sites. The plates were maintained on ice for 60 min and the tissue-bound radioactivity was separated from the free by rapid filtration in a Brandel Harvester onto GF/C filters presoaked in 0.5% polyethyleneimine for at least 2 hr. The filters were washed with 4×2 ml of ice-cold assay buffer and filters were transferred to vials to which 4 ml of scintillation cocktail was added. The radioactivity was measured in a LS-6500 Beckman Liquid Scintillation Counter in an autodpm mode. Data were analyzed bylog-logit transformation or non-linear regression analysis (e.g., employing GraphPad Prism, available from GraphPad Software, San Diego, Calif.) to give IC50 values. Non-specific binding was defined by 10 μM cytisine.

[8] = biological target: muscarinic acetylcholine receptors; assay: ^3 H-QNB (quinuclidinyl benzilate) binding/displacement, rat cerebral membranes; settings: ^3 H-QNB 60 pM, rat cerebral membranes
[9] = 1 h, 0-60 min, read-out: Ambulation (cross overs), percent of change from control
[10] = 1 h, 0-60 min, read-out: General Activity (beam breaks), percent of change from control
[11] = 2 h, 60-120 min, read-out: Ambulation (cross overs), percent of change from control
[12] = 2 h, 60-120 min, read-out: General Activity (beam breaks), percent of change from control

T1 sequence (P09483 31-630): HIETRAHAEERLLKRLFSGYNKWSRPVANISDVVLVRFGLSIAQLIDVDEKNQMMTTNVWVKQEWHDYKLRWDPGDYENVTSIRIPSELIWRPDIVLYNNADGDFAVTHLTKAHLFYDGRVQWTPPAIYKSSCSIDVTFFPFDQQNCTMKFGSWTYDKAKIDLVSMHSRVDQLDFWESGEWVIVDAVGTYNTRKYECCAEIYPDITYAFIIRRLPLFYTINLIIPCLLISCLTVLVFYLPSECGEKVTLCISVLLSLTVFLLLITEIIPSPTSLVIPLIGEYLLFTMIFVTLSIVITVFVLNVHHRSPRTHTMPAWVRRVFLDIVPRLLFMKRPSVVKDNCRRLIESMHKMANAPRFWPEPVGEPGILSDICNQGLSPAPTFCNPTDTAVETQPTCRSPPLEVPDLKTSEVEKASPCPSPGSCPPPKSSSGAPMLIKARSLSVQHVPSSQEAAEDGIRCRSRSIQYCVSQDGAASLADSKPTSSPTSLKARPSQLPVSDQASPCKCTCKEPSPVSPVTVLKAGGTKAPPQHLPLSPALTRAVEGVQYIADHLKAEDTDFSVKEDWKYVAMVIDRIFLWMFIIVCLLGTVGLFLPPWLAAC
T1 sequence (P12390 25-500): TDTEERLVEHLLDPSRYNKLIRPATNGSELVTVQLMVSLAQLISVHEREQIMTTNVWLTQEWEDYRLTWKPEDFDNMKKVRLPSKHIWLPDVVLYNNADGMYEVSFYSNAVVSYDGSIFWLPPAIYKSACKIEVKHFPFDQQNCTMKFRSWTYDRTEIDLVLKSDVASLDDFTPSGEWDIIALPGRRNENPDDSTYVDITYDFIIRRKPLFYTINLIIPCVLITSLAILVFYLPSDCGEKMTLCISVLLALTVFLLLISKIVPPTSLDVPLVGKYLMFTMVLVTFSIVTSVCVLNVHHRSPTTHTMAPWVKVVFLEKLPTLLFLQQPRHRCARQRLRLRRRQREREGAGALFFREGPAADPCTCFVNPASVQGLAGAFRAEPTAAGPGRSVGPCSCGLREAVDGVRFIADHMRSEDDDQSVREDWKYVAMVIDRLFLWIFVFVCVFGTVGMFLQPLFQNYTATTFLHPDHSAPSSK

SMILES: CN1CCCC1c1cncc(-c2ccc(F)cc2)c1.O=C(O)/C=C/C(=O)O (stereo not drawn) [A = CH2; R^7 = CH3; R^5 = 4-fluorophenyl, 5-(4-Fluorophenyl)-3-(1-methyl-2-pyrrolidinyl) pyridine fumarate]
- percent fractional release, ^3 H-Norepinephrine, Thalamus [1]: 0.9%
- percent fractional release, ^3 H-Dopamine, Striatum [2]: 1.96%
- change in vivo at 20 mg/kg (rats; [9]): 21%
- change in vivo at 20 mg/kg (rats; [10]): 95%
- change in vivo at 20 mg/kg (rats; [11]): 14%
- change in vivo at 20 mg/kg (rats; [12]): 173%
- percent fractional release, ^3 H-Dopamine, Olfactory Tubercles [3]: 2.68%
- percent fractional release, ^3 H-Norepinephrine, Hippocampus [4]: 0.58%
- percent fractional release, ^3 H-Norepinephrine, Prefrontal Cortex [5]: 1.23%

SMILES: CC(N)Cc1ccccc1 (stereo not drawn) [Amphetamine, amphetamine, reference compound]
- change in vivo at 0.5 mg/kg (rats; 2 h, 60-120 min, 0.5 mg/kg salt, read-out: General Activity (beam breaks), percent of change from control): 456%
- Percent change from control (ipsilateral rotations) [6]: +487%

SMILES: CN1CCCC1c1cncc(-c2ccc(O)c(F)c2)c1.O=C(O)/C=C/C(=O)O (stereo not drawn) [R^5 = 3-fluoro-4-hydroxyphenyl, 5-(4-hydroxy-3-fluorophenyl)-3-(1-methyl-2-pyrrolidinyl)pyridine fumarate]
- percent fractional release, ^3 H-Dopamine, Striatum [2]: 3.33%
- change in vivo at 20 mg/kg (rats; [9]): 49%
- change in vivo at 20 mg/kg (rats; [10]): 63%
- change in vivo at 20 mg/kg (rats; [11]): -14%
- change in vivo at 20 mg/kg (rats; [12]): 26%
- percent fractional release, ^3 H-Dopamine, Olfactory Tubercles [3]: 7.07%
- percent fractional release, ^3 H-Norepinephrine, Hippocampus [4]: 1.47%
- pIC50 [7]: 7.54
- percent fractional release, ^3 H-Norepinephrine, Prefrontal Cortex [5]: 1.14%
- pIC50 [8]: 4.46

SMILES: CN1CCCC1c1cncc(-c2ccc(-c3ccccc3)cc2)c1 (stereo not drawn) [R^5 = 4-biphenyl, 5-(4-Biphenyl)-3-(1-methyl-2-pyrrolidinyl)pyridine fumarate]
- percent fractional release, ^3 H-Norepinephrine, Thalamus [1]: 1.1%
- percent fractional release, ^3 H-Dopamine, Striatum [2]: 2.2%
- change in vivo at 20 mg/kg (rats; [9]): -9%
- change in vivo at 20 mg/kg (rats; [10]): -17%
- change in vivo at 20 mg/kg (rats; [11]): 73%
- change in vivo at 20 mg/kg (rats; [12]): 98%
- percent fractional release, ^3 H-Dopamine, Olfactory Tubercles [3]: 6.3%
- percent fractional release, ^3 H-Norepinephrine, Hippocampus [4]: 2.9%
- pIC50 [7]: 7.33
- percent fractional release, ^3 H-Norepinephrine, Prefrontal Cortex [5]: 3.4%
- pIC50 [8]: 5.02

SMILES: CN1CCCC1c1cncc(-c2ccc(O)cc2)c1.O=C(O)/C=C/C(=O)O (stereo not drawn) [R^5 = 4-hydroxyphenyl, 5-(4-Hydroxyphenyl)-3-(1-methyl-2-pyrrolidinyl)pyridine fumarate]
- percent fractional release, ^3 H-Norepinephrine, Thalamus [1]: 2.3%
- percent fractional release, ^3 H-Dopamine, Striatum [2]: 3.73%
- change in vivo at 20 mg/kg (rats; [9]): 74%
- change in vivo at 20 mg/kg (rats; [10]): 96%
- change in vivo at 20 mg/kg (rats; [11]): 110%
- change in vivo at 20 mg/kg (rats; [12]): 7%
- percent fractional release, ^3 H-Dopamine, Olfactory Tubercles [3]: 6.62%
- percent fractional release, ^3 H-Norepinephrine, Hippocampus [4]: 3.03%
- pIC50 [7]: 8.27
- percent fractional release, ^3 H-Norepinephrine, Prefrontal Cortex [5]: 3.16%
- pIC50 [8]: 4.72

SMILES: COc1ccc(-c2cncc(C3CCCN3C)c2)cc1.O=C(O)/C=C/C(=O)O (stereo not drawn) [R^5 = 4-methyoxyphenyl, 5-(4-Methoxyphenyl)-3-(1-methyl-2-pyrrolidinyl)pyridine fumarate]
- percent fractional release, ^3 H-Norepinephrine, Thalamus [1]: 0.52%
- percent fractional release, ^3 H-Dopamine, Striatum [2]: 2.1%
- change in vivo at 20 mg/kg (rats; [9]): 58%
- change in vivo at 20 mg/kg (rats; [10]): 83%
- change in vivo at 20 mg/kg (rats; [11]): 31%
- change in vivo at 20 mg/kg (rats; [12]): 22%
- percent fractional release, ^3 H-Dopamine, Olfactory Tubercles [3]: 4.0%
- percent fractional release, ^3 H-Norepinephrine, Hippocampus [4]: 0.99%
- pIC50 [7]: 7.74
- percent fractional release, ^3 H-Norepinephrine, Prefrontal Cortex [5]: 1.04%
- pIC50 [8]: 4.42

— patent US5677459A, “Methods for the preparation of modulators of acetylcholine receptors” (Sibia Neurosciences, Inc., priority 1995, dated 1997)
